# Source: patent US20140121256A1, “METHOD OF TREATING MUSCULAR WEAKNESS COMPRISING ADMINISTERING A COMPOSITION COMPRISING AN EFFECTIVE AMOUNT OF HISTAMINE AND/OR SEROTONIN” (BEECH TREE LABS, INC., priority 2012, published 2014)
# How the values were obtained:
# [1] = system: normal human BioArtificial Muscles (mBAMs engineered from human skeletal myoblasts); assay: Tetanic (active) force of mBAMs, MyoForce Analysis System; format: cell-based; settings: 80 nM; after 3-4 days of drug treatment; p<0.001
# Method: According to this example, a composition comprising histamine and serotonin was administered at 6 different concentrations on normal human BioArtificial Muscles (mBAMs engineered from human skeletal rmyoblasts) for effects on strength (active force generation) and injury using Myomics' MyoForce Analysis System (MFAS™).
# A solution comprising 200 times the dosage of the histamine and serotonin present in a typical therapeutic drop (i.e., 1 mg histamine and 16 mg serotonin in PBS) stored at 4° C. was administered to a cell culture comprising human skeletal muscle cells previously isolated from a normal (disease-free) person were used for this study. Cells were expanded in culture in a Growth Medium optimized for human skeletal muscle (SKGM/15) for 5 days before engineering into bioartificial muscles (mBAMs). On the day of engineering, mBAMs, cells were trypsinized and counted following standard laboratory protocols.
# A sterile 96 well MyoForce plate was used for tissue engineering the mBAMs. Myomics' Robotic Tissue Engineering Platform was used to engineer 72 mBAMs in approximately 10 minutes by mixing cells with an extracellular matrix solution and casting in the plate wells. The plate containing the mBAMs was maintained for 2 days at 37° C. in SKGM/15, then incubated in an optimized differentiation medium for the remainder of the experiment. […]
# [2] = system: C57BL/10SCSN-Dmd^mdx/J mice; assay: Grip strength tests (triangle and mesh) in mdx mouse model of DMD; format: in vivo; settings: 1×, 4×, 8×, twice daily
# From the text: Female mouse strain C57BL/10SCSN-Dmd^mdx/J (Jackson laboratories) is a strain of mice that is most similar in affliction to humans with DMD. The mdx mutation of Dmd is recessive and heterozygous females are visually indistinguishable from wild-type mice. […] One of the drawbacks of this mouse model is that by six weeks (10 weeks of age) the afflicted mice mimic the wild type control mice. This is attributed to the compensatory function of the dystrophin-related protein utrophin, which is highly up regulated in regenerating muscle fibers in adult Dmd^mdx mutants. The histamine and serotonin formulation was evaluated using this mouse model to determine its effects on DMD.
# The first experiment conducted focused on whether any difference could be detected in mice receiving the histamine and serotonin formulation vs. control.
# Injections started the following day.
# Measurements to determine effectiveness of histamine and serotonin formulation were conducted using two different methods: 1. a wire hang test was utilized to see how long the mice were able to hang onto a wire before releasing and falling, and 2. a grip strength meter device (Columbus Instruments) was used to measure the peak force exerted by the animal when pulled. […]
# For both of the grip strength tests, ten measurements were taken per mouse and the average was recorded.
structure (smiles),measurement,setting,value
CC(=O)OCC(=O)[C@@]12N=C(C)O[C@@H]1C[C@H]1[C@@H]3CCC4=CC(=O)C=C[C@]4(C)[C@H]3[C@@H](O)C[C@@]12C [deflazacort],increase in tetanic force compared to untreated controls,[1],32%
"NCCc1c[nH]c2ccc(O)cc12 [serotonin, 5-hydroxytryptamine]",grip strength tests vs PBS controls,"[2]; fourth experiment, serotonin alone 0.4×",no statistically significant differences
NCCc1c[nH]cn1 [histamine],triangle and mesh grip strength vs PBS control,"[2]; third experiment, histamine alone 0.4×",improves performance in both the Triangle and Mesh tests
